In paper PMC3388095, “Fluorophore Labeled Kinase Detects Ligands That Bind within the MAPK Insert of p38α Kinase” (PLoS ONE, 2012):

What follows are compounds tested against T1, p38α MAPK insert (Homo sapiens, UniProt Q16539, C119S/C162S/S252C) (assay: FLiK direct binding assay, acrylodan-labeled p38α (S252C) MAPK insert / lipid binding site). Details: binding to p38α MAPK insert; ratiometric acrylodan emission; each concentration in triplicate.
T1 construct: His-tag with PreScission Protease cleavage site (N); made in house; host or cells: E. coli BL21(DE3) Codon+RIL
T1 sequence (Q16539 whole entry C119S/C162S/S252C): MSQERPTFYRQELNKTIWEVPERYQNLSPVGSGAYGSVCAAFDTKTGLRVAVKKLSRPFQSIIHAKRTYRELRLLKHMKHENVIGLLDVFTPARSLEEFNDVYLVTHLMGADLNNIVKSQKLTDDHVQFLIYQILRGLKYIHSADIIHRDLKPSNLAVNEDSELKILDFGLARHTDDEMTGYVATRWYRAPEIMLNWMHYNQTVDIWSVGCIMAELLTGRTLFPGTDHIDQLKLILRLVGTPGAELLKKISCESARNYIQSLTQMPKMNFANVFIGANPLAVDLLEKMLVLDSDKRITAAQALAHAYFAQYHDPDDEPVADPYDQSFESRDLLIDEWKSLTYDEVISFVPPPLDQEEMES
Protocol: The human p38α kinase construct containing the mutations required for specific labeling (C119S/C162S/S252C) as well as wild type p38α were cloned into a pOPINF vector and transformed as an N-terminal His-tag construct with a PreScission Protease cleavage site into BL21(DE3) Codon+RIL E. coli. Protein expression, purification, fluorophore labeling and verification of mono-labeling of the kinase were performed essentially as described previously. Labeling of the mutant p38α protein with thiol-reactive acrylodan was carried out by adding a 1.5∶1 molar excess of the fluorophore (dissolved in DMSO) to the purified protein in 50 mM Hepes Buffer (pH 7.0). The mixture was allowed to react in the dark overnight at 4°C. Unreacted acrylodan was subsequently removed by three cycles of buffer exchange into FLiK Measurement Buffer (50 mM Hepes Buffer, pH 7.4+200 mM NaCl) using a 10k-MWCO Centricon. The protein was concentrated to ∼200 μM, aliquoted and frozen at −80°C. Mono-labeling of the protein was verified by ESI-MS as described previously, [24].
Characterization of the fluorescence response of MAP insert-labeled p38α was carried out as described previously for p38α labeled on the activation loop. […] Briefly, a polystyrene cuvette containing a suspension of 50 nM acrylodan-labeled p38α in FLiK Buffer was excited at 386 nm and emission spectra were measured in the absence and presence of increasing concentrations of 1b. The compound was dissolved in 100% DMSO and delivered in sequential small doses to a single sample. […] Ratiometric fluorescence readouts are advantageous in that they provide an internal correction for small errors in sample volume which can affect signal intensity. All measurements of the cuvettes were made with a JASCO FP-6500 fluorescence spectrophotometer (JASCO GmbH, Germany).
The assay was adapted to high-throughput screening formats which enabled KD values to be determined in black small volume assay plates. Briefly, a dilution series of each compound was first prepared in 100% DMSO at 20X the desired final concentration and 1 μL was transferred to the assay plate. Compounds were then mixed with 19 µL of FLiK Buffer (supplemented with 0.01% Triton X-100) containing acrylodan-labeled p38α (100 nM). The final concentration of compound in the dilution series ranged from 0–50 μM (5% v/v DMSO final). Plates were covered with an adhesive aluminum foil and incubated for 30 min at RT prior to measurement of emission intensities at 470 and 520 nm using a Tecan Safire^2 plate reader. […] Binding curves were plotted using the ratio R = I520/I470 to determine the KD.

Q: Which Kd does the source give for Nc1ccc2c(NCCc3ccccc3)nc(-c3ccccc3)nc2c1 [8b, 2-Phenyl-N^4-(2-phenylethyl)-4,7-quinazolinediamine] here?
A: 1.2 ± 0.3 µM

Q: With O=[N+]([O-])c1ccc2c(NCc3ccccc3)nc(-c3ccncc3)nc2c1 [7c, N-Benzyl-7-nitro-2-(4-pyridinyl)-4-quinazolinamine] as the compound, how does the Kd read?
A: 0.81 ± 0.1 µM

Q: Which Kd does the source give for Nc1ccc2c(NC3CC3)nc(-c3ccncc3)nc2c1 [5b, N^4-Cyclopropyl-2-(4-pyridinyl)-4,7-quinazolinediamine] here?
A: > 50 µM

Q: With O=[N+]([O-])c1ccc2c(NCC3CC3)nc(-c3ccccc3)nc2c1 [6a, N-(Cyclopropylmethyl)-7-nitro-2-phenyl-4-quinazolinamine] as the compound, how does the Kd read?
A: 0.46 ± 0.21 µM

Q: For O=[N+]([O-])c1ccc2c(NC3CC3)nc(-c3ccncc3)nc2c1 [5a, N-Cyclopropyl-7-nitro-2-(4-pyridinyl)-4-quinazolinamine], which Kd is on record?
A: > 10 µM

Q: With O=[N+]([O-])c1ccc2c(NC3CC3)nc(-c3ccccc3)nc2c1 [1a, N-Cyclopropyl-7-nitro-2-phenyl-4-quinazolinamine] as the compound, how does the Kd read?
A: 1.9 ± 0.2 µM

Q: For Nc1ccc2c(NCC3CC3)nc(-c3ccccc3)nc2c1 [6b, N^4-(Cyclopropylmethyl)-2-phenyl-4,7-quinazolinediamine], which Kd is on record?
A: 4.7 ± 0.7 µM

Q: O=[N+]([O-])c1ccc2c(NCCc3ccccc3)nc(-c3ccncc3)nc2c1 [8c, 7-Nitro-N-(2-phenylethyl)-2-(4-pyridinyl)-4-quinazolinamine] was tested. Which Kd did it give?
A: 1.8 ± 0.3 µM

Q: For O=[N+]([O-])c1ccc2c(NCc3ccccc3)nc(-c3ccccc3)nc2c1 [7a, N-Benzyl-7-nitro-2-phenyl-4-quinazolinamine], which Kd is on record?
A: 0.32 ± 0.09 µM

Q: For Nc1ccc2c(NCc3ccccc3)nc(-c3ccccc3)nc2c1 [7b, N^4-Benzyl-2-phenyl-4,7-quinazolinediamine], which Kd is on record?
A: 2.2 ± 0.8 µM

Same assay, conditions: binding to p38α MAPK insert; value as printed in text

Q: Which Kd does the source give for O=[N+]([O-])c1ccc2c(NCCc3ccccc3)nc(-c3ccccc3)nc2c1 [8a, 7-Nitro-2-phenyl-N-(2-phenylethyl)-4-quinazolinamine] here?
A: 0.28 µM
